Laboratory results as given in ChEMBL document CHEMBL4346722, “Recent progress on the discovery of P2Y14 receptor antagonists” (Eur J Med Chem, 2019).
pIC50, pKi: −log10 of the molar value.

Experiments:
[1] = Inhibition of chimpanzee P2Y14 receptor; set-up: species or system Pan troglodytes
[2] = Half life in C57BL/6 mouse at 50 mg/kg, po; format: ADME, organism-based; details: in vivo
P2Y purinoceptor 14 [3] = molecular target: T1, P2Y purinoceptor 14 (Mus musculus, UniProt Q9ESG6); experiment: Inhibition of mouse P2Y14 receptor in presence of 2% HSA
T1 sequence (Q9ESG6 whole entry): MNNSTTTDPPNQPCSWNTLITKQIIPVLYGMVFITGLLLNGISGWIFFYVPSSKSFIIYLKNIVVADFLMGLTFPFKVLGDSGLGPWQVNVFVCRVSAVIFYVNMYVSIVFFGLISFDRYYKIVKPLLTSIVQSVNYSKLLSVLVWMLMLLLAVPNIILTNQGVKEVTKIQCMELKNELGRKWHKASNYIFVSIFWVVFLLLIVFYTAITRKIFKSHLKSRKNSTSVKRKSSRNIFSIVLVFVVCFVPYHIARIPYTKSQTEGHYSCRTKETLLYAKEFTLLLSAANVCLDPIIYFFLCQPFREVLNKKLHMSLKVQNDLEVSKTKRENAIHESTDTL

P2Y purinoceptor 14 [4] = molecular target: T1, P2Y purinoceptor 14; experiment: Inhibition of mouse P2Y14 receptor
[5] = Clearance in C57BL/6 mouse at 50 mg/kg, po; format: ADME, organism-based; details: in vivo

Compound | pIC50 [1] | pKi [1] | half-life [2] [h] | pKi (P2Y purinoceptor 14 [3]) | pKi (P2Y purinoceptor 14 [4]) | CL/F [5] [mL/min/kg]
Cc1cc(F)cc(C)c1COc1ccc2c(-c3ccsc3)cc(C(=O)O)cc2c1 | 8.40 | 7.85 | – | – | – | –
O=C(O)c1cc(-c2ccc([C@@H](O)C(F)F)cc2)c2ccc(-c3ccc(C(F)(F)F)cc3)cc2c1 | – | – | 3 | 5.89 | 8.40 | 1.6
O=C(O)c1cc(-c2ccc(C3CCNCC3)cc2)c2ccc(-c3ccc(C(F)(F)F)cc3)cc2c1 [PPTN] | – | 8.72 | – | – | – | –
